Source: US11278684B2, “Device and method of delivering particles in the upper respiratory tract” (SERVICES MEDICAUX ARNOLD ET JOAN ZIDULKA INC., priority 2016, dated 2022)

Test: two rounds of testing on a patient with ciclesonide administered by the oral inhalation / nasal exhalation method
Type: in vivo
Settings: one patient; two sprays of 200 micrograms aerosolized ciclesonide, four to six oral inhalations each followed by nasal exhalation, morning and evening for two weeks; FIG. 3 device
Excerpt: The Applicant has performed two rounds of testing on a patient suffering from post-nasal drip and upper laryngeal syndrome with an interval of two weeks between the rounds, each round consisting in administering a therapeutically effective dose of ciclesonide using the method of the present invention. […] In some embodiments, the therapeutically effective dose of ciclesonide for the treatment of upper airway cough syndrome is from 25 to 800 micrograms. Use of ciclesonide for the treatment of upper airway cough syndrome provides the advantage of avoiding fungal infections typically associated with administration of corticosteroid in the posterior nasal region, pharynx and the larynx.
In conducting the rounds of testing, the Applicant used the embodiment of the oral delivery device of the present invention shown in FIG. 3. […] It should be noted that in some embodiments, the effective volume is greater or smaller than 375 milliliters. In operation, the patient released two sprays of aerosolized ciclesonide into the oral delivery device, each one of the sprays containing 200 micrograms of ciclesonide, and performed four to six oral inhalations, each one of the inhalations being followed by a nasal exhalation into the ambient atmosphere. Each one of the inhalations drew ambient air into the oral delivery device to sweep in an additional amount of aerosolized ciclesonide. […]

## CC(C)C(=O)OCC(=O)[C@@]12O[C@H](C3CCCCC3)O[C@@H]1C[C@H]1[C@@H]3CCC4=CC(=O)C=C[C@]4(C)[C@H]3[C@@H](O)C[C@@]12C [ciclesonide]
  patient-reported symptoms of upper airway cough syndrome following each round: significant alleviation of the symptoms
